Assay results published in ChEMBL document CHEMBL3864142, “Allicin-inspired thiolated fluoroquinolones as antibacterials against ESKAPE pathogens” (2016).

What was measured:
Details in all cases: read-out: DIZ
Pseudomonas aeruginosa = test: Antibacterial activity against Pseudomonas aeruginosa ATCC 15442 at 10 uM by disc diffusion method; format: functional
Staphylococcus aureus [1] = test: Antibacterial activity against methicillin-resistant Staphylococcus aureus BAA-1747 at 10 uM by disc diffusion method; format: functional
Enterococcus faecium = test: Antibacterial activity against vancomycin-resistant Enterococcus faecium ATCC 700221 at 10 uM by disc diffusion method; format: functional
Klebsiella pneumoniae = test: Antibacterial activity against ESBL-producer Klebsiella pneumoniae K6 700603 at 10 uM by disc diffusion method; format: functional
Enterobacter cloacae = test: Antibacterial activity against Enterobacter cloacae ATCC 23355 at 10 uM by disc diffusion method; format: functional
[2] = Antibacterial activity against Bacillus anthracis Sterne 34F2 at 10 uM by disc diffusion method; format: functional, Bacillus anthracis str. Sterne
Acinetobacter baumannii [3] = test: Antibacterial activity against Acinetobacter baumannii ATCC 19606 at 10 uM by disc diffusion method; format: functional
Staphylococcus aureus [4] = test: Antibacterial activity against methicillin-susceptible Staphylococcus aureus ATCC 29213 at 10 uM by disc diffusion method; format: functional
Acinetobacter baumannii [5] = test: Antibacterial activity against ciprofloxacin-resistant Acinetobacter baumannii BAA-1605 at 10 uM by disc diffusion method; format: functional
[6] = Antibacterial activity against vancomycin-intermediate resistant Staphylococcus aureus Mu50 ATCC 700699 at 10 uM by disc diffusion method; format: functional, Staphylococcus aureus subsp. aureus Mu50
Enterococcus faecalis = test: Antibacterial activity against vancomycin-susceptible Enterococcus faecalis ATCC 29212 at 10 uM by disc diffusion method; format: functional
[7] = test system: Staphylococcus epidermidis; test: Antibacterial activity against Staphylococcus epidermidis ATCC 14990 at 10 uM by disc diffusion method; format: functional

| SMILES | zone of inhibition at 10 µM (Pseudomonas aeruginosa) [mm] | zone of inhibition at 10 µM (Staphylococcus aureus [1]) [mm] | zone of inhibition at 10 µM (Enterococcus faecium) [mm] | zone of inhibition at 10 µM (Klebsiella pneumoniae) [mm] | zone of inhibition at 10 µM (Enterobacter cloacae) [mm] | zone of inhibition at 10 µM [2] [mm] | zone of inhibition at 10 µM (Acinetobacter baumannii [3]) [mm] | zone of inhibition at 10 µM (Staphylococcus aureus [4]) [mm] | zone of inhibition at 10 µM (Acinetobacter baumannii [5]) [mm] | zone of inhibition at 10 µM [6] [mm] | zone of inhibition at 10 µM (Enterococcus faecalis) [mm] | zone of inhibition at 10 µM [7] [mm] |
| --- | --- | --- | --- | --- | --- | --- | --- | --- | --- | --- | --- | --- |
| CCCCCCSN1CCN(c2cc3c(cc2F)c(=O)c(C(=O)O)cn3C2CC2)CC1 | 23 | 18 | 8 | 16 | 19 | 30 | 15 | 18 | 0 | 9 | 15 | 26 |
| CSN1CCN(c2cc3c(cc2F)c(=O)c(C(=O)O)cn3C2CC2)CC1 | 29 | 23 | 0 | 22 | 23 | 36 | 23 | 24 | 10 | 11 | 21 | 33 |
| CCSN1CCN(c2cc3c(cc2F)c(=O)c(C(=O)O)cn3C2CC2)CC1 | 32 | 22 | 0 | 23 | 25 | 37 | 24 | 24 | 0 | 11 | 25 | 32 |
| O=C(O)c1cn(C2CC2)c2cc(N3CCN(Sc4ccccc4)CC3)c(F)cc2c1=O | 27 | 22 | 10 | 20 | 26 | 36 | 23 | 21 | 0 | 12 | 20 | 23 |
| O=C(O)c1cn(C2CC2)c2cc(N3CCN(Sc4ccc(Cl)cc4)CC3)c(F)cc2c1=O | 26 | 17 | 8 | 20 | 22 | 34 | 20 | 21 | 0 | 12 | 20 | 29 |
| O=C(O)c1cn(C2CC2)c2cc(N3CCN(Sc4ccccc4[N+](=O)[O-])CC3)c(F)cc2c1=O | 9 | 19 | 0 | 9 | 19 | 27 | 19 | 18 | 0 | 0 | 20 | 23 |
| CCC(C)SN1CCN(c2cc3c(cc2F)c(=O)c(C(=O)O)cn3C2CC2)CC1 (stereo unspecified) | 27 | 23 | 8 | 20 | 23 | 35 | 22 | 24 | 0 | 11 | 22 | 32 |
| CCCCSN1CCN(c2cc3c(cc2F)c(=O)c(C(=O)O)cn3C2CC2)CC1 | 28 | 20 | 0 | 21 | 25 | 37 | 22 | 22 | 0 | 11 | 23 | 34 |
